Data taken from patent publication US12594349B2, “Compositions and methods for the targeting of PCSK9” (Scribe Therapeutics Inc., priority 2022, dated 2026).

Legend:
Huh7 cells = assay: RNA-seq, differentially regulated off-target genes in transfected Huh7 cells; format: cell-based, human; conditions: Huh7, 6 and 26 days post-transfection, |log2FC|>2 and adjusted p-value<0.001
Excerpt: (§1) Seeded Huh7 cells were transfected with mRNA encoding a catalytically-active CasX 676, dXR1, or LTRP5-ADD-ZIM3 and a gRNA with scaffold 316 and a spacer targeting the PCSK9 locus. Cells were harvested at 6 and 26 days post-transfection and subsequently lysed and stored in DNA/RNA Shield (Zymo Research). As an additional control, untreated, naïve cells were also harvested. The collected samples were subjected to gDNA/RNA extraction using the Quick-DNA/RNA Miniprep Plus kit (Zymo Research). RNA samples were used for total RNA sequencing (RNA-seq), which was performed by a third-party. Raw FASTQ files were received and processed with FASTQC, and adapters were trimmed using Trim Galore. Transcript expression was then quantified against the hg38 genome using Salmon to generate normalized counts for each gene (transcripts per million, or TPM). Differential expression analysis was performed using DESeq2. Genes with fewer than 10 counts in all samples were omitted from analysis, and all pairwise comparisons (e.g., differential gene expression analyses between untreated and treated conditions at the two individual timepoints) were done with significance thresholds of |log 2FC|>2 and adjusted p-value<0.001.

human PCSK9 locus = assay: Secreted PCSK9 by ELISA in Huh7 cells transfected with mRNA and gRNA; format: cell-based; conditions: Huh7 cells; for Secreted PCSK9: 6 days post-transfection, normalized to total cell count; for Percent reduction in PCSK9 secretion: day 6, relative to non-targeting gRNA control
How it was run: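 Huh7 (also HepG2, Hep3B) cells were transfected with mRNA for CasX 676, dXR1 or LTRP5-ADD-ZIM3 plus scaffold 316 gRNA targeting PCSK9 or B2M; one screen used 50:25 or 25:12.5 ng mRNA:gRNA. Supernatant PCSK9 was measured by ELISA at 4–87 days post-transfection and normalized to cell count.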

PCSK9 locus = assay: RNA-seq, normalized PCSK9 read counts in transfected Huh7 cells; format: cell-based, human; conditions: Huh7, mRNA + gRNA scaffold 316 v1, 6 and 26 days post-transfection
Excerpt: as §1

mouse PCSK9 locus = assay: Intracellular PCSK9 staining by flow cytometry in Hepa1-6 cells lipofected with mRNA and gRNA; format: cell-based; conditions: Hepa1-6, dXR1 mRNA, day 6
Method: Seeded Hepa1-6 cells treated with the NATE™ inhibitor were lipofected with 300 ng of mRNA encoding dXR1 or LTRP1-ZIM3 (Table 12) and 150 ng of a PCSK9-targeting gRNA (Table 14). Seven different gRNAs spanning the promoter region of the mouse PCSK9 locus were tested, in addition to a non-targeting sequence complementary to the human PCSK9 gene (Table 14). Cells were harvested at 6, 13, and 25 days after transfection to measure intracellular levels of the PCSK9 protein using an intracellular flow cytometry staining protocol. […]
Seeded Hepa1-6 cells treated with the NATE™ inhibitor were lipofected with 300 ng of mRNA encoding LTRP1-ZIM3, LTRP5-ZIM3, catalytically-active CasX 491, or dCas9-ZNF10-DNMT3A/3L, and 150 ng of PCSK9-targeting gRNA (Table 14). Intracellular levels of PCSK9 protein were measured at 7, 14, 21, 36, and 71 days post-transfection using an intracellular staining protocol as described earlier for experiment #1.
Transfection of mRNA and gRNA into Hepa1-6 cells and intracellular PCSK9 staining were performed as described in Example 2. […] Intracellular levels of PCSK9 protein were measured at various timepoints, up to day 53 post-transfection using an intracellular staining protocol as described earlier in Example 2. […]

Molecule	differentially regulated off-target genes (Huh7 cells)	Secreted PCSK9 (human PCSK9 locus; LTRP5-ADD-ZIM3 mRNA + gRNA scaffold 316, 25 ng mRNA:12.5 ng gRNA) [ng/mL]	Secreted PCSK9 (human PCSK9 locus; LTRP5-ADD-ZIM3 mRNA + gRNA scaffold 316, 50 ng mRNA:25 ng gRNA) [ng/mL]	Percent reduction in PCSK9 secretion (human PCSK9 locus; LTRP5-ADD-ZIM3 mRNA, 25 ng mRNA:12.5 ng gRNA) [%]	Percent reduction in PCSK9 secretion (human PCSK9 locus; LTRP5-ADD-ZIM3 mRNA, 50 ng mRNA:25 ng gRNA) [%]	Average percent reduction in PCSK9 secretion (human PCSK9 locus; LTRP5-ADD-ZIM3 mRNA, day 6, averaged from the two doses) [%]	PCSK9 expression by RNA-seq (PCSK9 locus)	degree of repression with dXR1 mRNA compared with LTRP1-ZIM3 mRNA (mouse PCSK9 locus)
TG-06-167 (guide CACUGAAUAGCGCAGCCGCA; listed as RNA, chemistry not given here)	higher number of differentially regulated off-target genes	66.61	39.55	6.51	51.93	29.22	durably repress PCSK9 expression	
27.100 (nucleic acid, as printed in the source, key not given here) guide: ACUUUGAGAGCCAUCACCAGCGACUAUGUCGUAGUGGGUAAAGCUCCCUCUUCGGAGGGAGCAUCAAAGCUCUCUCUUUCUGAGGCmU*mA*mG								less substantial
